Data from ChEMBL document CHEMBL1137096, “Optimization and metabolic stabilization of a class of nonsteroidal glucocorticoid modulators” (Bioorg Med Chem Lett, 2004).

Assay: in vivo
Conditions: rat

- bioavailability: 12%
SMILES: Cc1c(NS(C)(=O)=O)cccc1N(Cc1ccccc1)Cc1ccc(Oc2cccc(OCCCC(=O)NCCCC(=O)O)c2)cc1
